From patent publication US10231979B2, “Modulation of inflammation using progesterone metabolites” (Indiana University Research and Technology Corporation, priority 2015, dated 2019)
“And” between values parts separate entries of the source, which are not always exact repeats. Identical values can stand only once. Like-named read-outs stand apart in the source and are kept apart here.

Tests used:
[1] = system: uterine horns from wild-type (WT) C57BL/6J female mice; assay: Spontaneous uterine contractility, isolated uterine horns in tissue organ bath; settings: for Spontaneous contractile force compared with the vehicle control (in words) / Spontaneous uterine contraction frequency compared to vehicle control (in words) / Contractile Frequency/10 min (% of baseline), Drug / Contractile Force (% of baseline), Drug: maximal treatment dose; for Contractile Frequency/10 min (% of baseline), Drug / Contractile Force (% of baseline), Drug: spontaneous contractility; for Contractile Force (% of baseline), Drug: AUC as % of baseline AUC; for IC50: spontaneous, dose-response 10^-9 to 10^-6 mol/L
Experimental: (§1) FIGS. 2A & 2B are representative contraction tracings of uterine horns from wild-type (WT) C57BL/6J female mice. FIG. 2A: Uterine horns were isolated and suspended in a tissue organ bath at 0.5 g of tension. Once equilibrated, selected progestin treatments were added in successively increasing concentrations from 10^−9 to 10^−6 mol/L in 20-minute intervals to assess effect on spontaneous contractile activity (progesterone treatment, bottom panel). The contralateral horn from each mouse was treated with a matching ethanol vehicle (top panel). All contraction responses were measured and reported as the area under the contraction curve (AUC), normalized to the AUC of the spontaneous contraction pattern that preceded treatment. FIG. 2B: Treatment effect on oxytocin-induced contractility was assessed by exposing horns to selected progestin treatments (10^−6 mol/L), followed by increasing doses of oxytocin (Oxt) (1, 10, 50, and 100 nmol/L) in 10-minute intervals (bottom panel). The contralateral horn from each mouse was treated with a matching ethanol vehicle (top panel). Contraction responses were measured and reported as described above.
(§2) All progestins were solubilized in ethanol and then diluted in phosphate-buffered saline to the desired molar concentration. […] The concentration of ethanol decreased parallel to the progestin dose in order to minimize the effect of the solvent on uterine contractility.
(§3) Virgin nonpregnant wild-type C57BL/6J female mice (Jackson Labs, Bar Harbor, Me.) were obtained at 10 to 12 weeks of age and fed a standard diet. Mice were euthanized by an IACUC-approved protocol, and each of the 2 uterine horns were removed. A 1 cm×0.5 cm segment of the uterine horn was suspended using 4-0 silk suture between a stainless steel wire hook connected to a Radnoti force displacement transducer (Radnoti LLC, Monrovia, Calif.) and a glass hook inside an organ bath that served as an anchor. The bath was filled with modified Krebs buffer (118 mmol/L NaCl, […], 1.2 mmol/L MgSO4, 1.2 mmol/L KH2PO4, 2.5 mmol/L CaCl2, 25 mmol/L NaHCO3, and 11 mmol/L glucose, pH 7.4), maintained at 37° C., and constantly bubbled with a premixed gas consisting of 20% O2, 5% CO2, and balance N2. Uterine horns were equilibrated at 0.5 g of tension for approximately 30 minutes until a spontaneous contraction pattern was established.
A total of 60 mice were utilized to assess the effect of the selected treatments on uterine contractility, 30 in the spontaneous contraction group and 30 in the oxytocin-induced group. Six mice were in each progestin treatment group during both spontaneous and oxytocin-induced contractility arms of the study. To determine the nongenomic (acute) effect of the progestin treatments on spontaneous uterine contractility, a segment of uterine horn from each mouse was exposed to a single progestin (progesterone, 17-OHPC, 2α-OHP, 6β-OHP, or 16αOHP), while a segment of the contralateral horn was exposed to a matching dose of ethanol vehicle. After a spontaneous contraction pattern was achieved, the progestin treatment was added to the tissue organ bath in successively increasing concentrations from 10^−9 to 10^−6 mol/L in 20-minute intervals. At the end of the treatments, the tissue was washed in modified Krebs buffer and then exposed to KCl (60 mmol/L) to elicit a tetanic response and confirm tissue viability.
Uterine contraction responses were recorded using LabChart Pro (ADInstruments, Colorado Springs, Colo.) software as the force generated with time (g×min). Baseline uterine contractility was calculated as the area under the curve (AUC) for a 10-minute period of spontaneous contractions. The AUC of the uterine contractile response to each treatment (progestin or oxytocin) was determined and expressed as a percentage of the baseline AUC observed during spontaneous contraction. […]

[2] = system: uterine horns from wild-type (WT) C57BL/6J female mice; assay: Oxytocin-induced uterine contractility after progestin pretreatment, isolated uterine horns in tissue organ bath; settings: for Oxytocin-induced contractile force compared to vehicle control (in words) / Oxytocin-induced contraction frequency compared to control (in words) / Contractile Force (% of baseline), Drug / Contractile Frequency/10 min (% of baseline), Drug: maximal oxytocin dose (100 nmol/L); for EC50: oxytocin-induced dose-response (1-100 nmol/L oxytocin) after progestin pretreatment 10^-6 mol/L; for Contractile Force (% of baseline), Drug / Contractile Frequency/10 min (% of baseline), Drug: oxytocin-induced, progestin pretreatment 10^-6 mol/L
Experimental: as §1, §2, §3
To determine the nongenomic effect of progestin treatments on oxytocin-induced uterine contractility, the uterine horns were pretreated with a single progestin at 10^−6 mol/L for 10 minutes after a spontaneous contractile pattern was established. The contralateral horn from the same mouse was treated with ethanol vehicle at a matching concentration. The uterine horns were subsequently exposed to increasing concentrations of oxytocin (1, 10, 50, and 100 nmol/L) in 10-minute intervals. At the end of the oxytocin treatments, the tissue was washed and then exposed to KCl (60 mmol/L) to elicit a tetanic response and confirm tissue viability.
Uterine contraction responses were recorded using LabChart Pro (ADInstruments, Colorado Springs, Colo.) software as the force generated with time (g×min). Baseline uterine contractility was calculated as the area under the curve (AUC) for a 10-minute period of spontaneous contractions. The AUC of the uterine contractile response to each treatment (progestin or oxytocin) was determined and expressed as a percentage of the baseline AUC observed during spontaneous contraction. […] To account for repeated measurements for individual muscle strips at increasing treatment doses, a repeated measures 2-way analysis of variance model was used to compare the dose-response curves. Each dose-response curve was fit by nonlinear regression and compared using an extra sum of squares F test. The mean max-fit response was compared between each progestin and vehicle control to determine maximum treatment efficacy. […]

THP-1 monocyte cells = assay: Flow cytometry of monocyte-derived macrophage population (PMA differentiation); format: cell-based; settings: THP-1 pre-treated 24 hours, then PMA
Experimental: FIGS. 6A-6C depict flow cytometry of a monocyte-derived macrophage population pre-treated with progesterone metabolites. THP-1 monocyte cells were pre-treated with progesterone metabolites 16αOHP and 6β-OHP for 24 hours, then stimulated to differentiate to macrophages by exposure to PMA.
THP-1 monocyte cells were pre-treated with progesterone metabolites 16αOHP and 6β-OHP for 24 hours, then stimulated to differentiate to macrophages by exposure to phorbol 12-myristate 13-acetate (PMA).

[3] = system: primary uterine smooth muscle cells (UtSMC); assay: IL-6 production in UtSMC stimulated with TNF-α; format: cell-based
Text: FIGS. 5A & 5B are graphs depicting the effect of progesterone metabolites 16αOHP and 6β-OHP on inflammation in primary uterine smooth muscle cells (UtSMC).

[4] = system: primary uterine smooth muscle cells (UtSMC); assay: IL-6 production in UtSMC stimulated with LPS; format: cell-based; settings: for IL-6 / IL-6, % of positive control: UtSMC pre-treated, then LPS; for IL-6: LPS positive control 121.7 pg/mL; for IL-6, % of positive control: relative to DMSO+LPS positive control
Experimental: In this Example, the effect of progesterone metabolites 16αOHP and 6β-OHP on inflammation in primary uterine smooth muscle cells (UtSMC) was analyzed.
UtSMC were cultured in the presence of DMSO and one of the following: (1) progesterone; (2) […]; (3) 6β-OHP; and (4) 16αOHP. Lipopolysaccharide (LPS) was then added to the culture to stimulate an immune inflammatory reaction. Experiments were performed in triplicate.

THP-1 monocytes = assay: IL-6 production in THP-1 monocytes stimulated with LPS; format: cell-based; settings: THP-1 monocytes pretreated, then LPS; versus positive control
Experimental: FIG. 9 is a graph depicting the effect of progesterone and progesterone metabolites (16αOHP and 6β-OHP) on inflammation in THP-1 monocytes stimulated with LPS.
In this Example, the effect of progesterone and progesterone metabolites (16αOHP and 6β-OHP) on inflammation in THP-1 monocytes stimulated with LPS was analyzed.

NF-κB pathway = NF-κB pathway activation in THP-1 monocytes stimulated with LPS (imaging flow cytometry); format: cell-based; settings: THP-1 monocytes pre-treated, then LPS
Experimental: FIGS. 8A-8B depicts the summary of NF-κB pathway activation in THP-1 monocytes stimulated with LPS after pre-treatment with progesterone and progesterone metabolites. […] In this Example, the effect of progesterone metabolites on the LPS-induced inflammatory response in monocytes was analyzed. Particularly, NF-κB pathway activation in THP-1 monocytes stimulated with LPS after pre-treatment with progesterone and progesterone metabolites was analyzed.

[5] = system: monocyte-derived macrophage populations; assay: Macrophage cell surface marker expression of monocyte-derived macrophages; format: cell-based; settings: relative to DMSO treated control
Text: FIG. 7 is a graph depicting characterization of monocyte-derived macrophage populations after pre-treatment with progesterone and progesterone metabolites. Expression of macrophage cell surface markers is illustrated relative to DMSO treated control.
In this Example, monocyte-derived macrophage populations after pre-treatment with progesterone and progesterone metabolites were characterized.
Expression of macrophage cell surface markers is illustrated relative to DMSO treated control (see FIG. 7).

[6] = read-out: Contractile Force IC50
[7] = read-out: Contractile Frequency IC50
[8] = read-out: Contractile Force EC50
[9] = read-out: Contractile Frequency EC50
[10] = Mus musculus, read-out: Contractile Force IC50
[11] = Mus musculus, read-out: Contractile Frequency IC50
[12] = Mus musculus, read-out: Contractile Force EC50
[13] = Mus musculus, read-out: Contractile Frequency EC50

CC(=O)[C@H]1CC[C@H]2[C@@H]3CCC4=CC(=O)[C@H](O)C[C@]4(C)[C@H]3CC[C@]12C [2α-OHP, 4-pregnen-2α-ol-3,20-dione]
Spontaneous contractile force compared with the vehicle control (in words) [1]: No significant difference
Spontaneous uterine contraction frequency compared to vehicle control (in words) [1]: not significantly decreased
Contractile Frequency/10 min (% of baseline), Drug [1]: 53.7% of baseline
Contractile Force (% of baseline), Drug [1]: 37.9% of baseline
IC50 [1, 6]: 0.32 nM
IC50 [1, 7]: 0.55 nM
Oxytocin-induced contractile force compared to vehicle control (in words) [2]: no differences
Oxytocin-induced contraction frequency compared to control (in words) [2]: not
EC50 [2, 8]: 68.2 nM
EC50 [2, 9]: 646 nM
Contractile Force (% of baseline), Drug [2]: 329.5% of baseline
Contractile Frequency/10 min (% of baseline), Drug [2]: 168.9% of baseline

CC(=O)[C@H]1[C@H](O)C[C@H]2[C@@H]3CCC4=CC(=O)CC[C@]4(C)[C@H]3CC[C@@]21C [16α-OHP, 4-pregnen-16α-ol-3,20-dione]
Spontaneous contractile force compared with the vehicle control (in words) [1]: No significant difference
Spontaneous uterine contraction frequency compared to vehicle control (in words) [1]: not significantly decreased
Contractile Frequency/10 min (% of baseline), Drug [1]: 57% of baseline
Contractile Force (% of baseline), Drug [1]: 37.2% of baseline
IC50 [1, 6]: 0.77 nM
IC50 [1, 7]: 0.74 nM
Effect on oxytocin-induced uterine contractility (in words) [2]: decreased
Oxytocin-induced contractile force compared to vehicle control (in words) [2]: no differences
Oxytocin-induced contraction frequency compared to control (in words) [2]: decreased significantly
EC50 [2, 8]: 142 nM
EC50 [2, 9]: 8.46 nM
Contractile Force (% of baseline), Drug [2]: 301.6% of baseline
Contractile Frequency/10 min (% of baseline), Drug [2]: 216.9% of baseline
Contractile Frequency/10 min (% of baseline), Drug ([2]; listed as 16αOHP): 217 % of baseline
Macrophage population/phenotype compared to DMSO treated control (in words) (THP-1 monocyte cells): decrease in the macrophage population/phenotype
IL-6 production (in words) [3]: decreased IL-6 production
IL-6 [4]: 98.7 pg/mL
IL-6, % of positive control [4]: 83%
IL-6 production (in words) ([4]; UtSMC stimulated with LPS): reduced IL-6 production
Inflammatory response (IL-6 production) (in words) (THP-1 monocytes): significantly decreased IL-6 production

CCCCCC(=O)O[C@]1(C(C)=O)CC[C@H]2[C@@H]3CCC4=CC(=O)CC[C@]4(C)[C@H]3CC[C@@]21C [17-OHPC, 4-pregnen-17-ol-3,20-dione caproate, reference compound]
IC50 [1, 10]: 0.78 nM
IC50 [1, 11]: 0.31 nM
Spontaneous contractile force compared with the vehicle control (in words) [1]: No significant difference
Spontaneous uterine contraction frequency compared to vehicle control (in words) [1]: not significantly decreased
Contractile Frequency/10 min (% of baseline), Drug [1]: 57.9% of baseline
Contractile Force (% of baseline), Drug [1]: 50.4% of baseline
EC50 [2, 12]: 8.43 nM
EC50 [2, 13]: 3.26 nM
Oxytocin-induced contraction frequency compared to control (in words) [2]: decreased significantly
Contractile Force (% of baseline), Drug [2]: 218.4 % of baseline
Contractile Frequency/10 min (% of baseline), Drug [2]: 130 % of baseline and 130.2% of baseline

C[C@]12CC[C@@H]3c4ccc(O)cc4CC[C@H]3[C@@H]1CC[C@@H]2O [E2, reference compound]
IL-6 [4]: 126 pg/mL
IL-6, % of positive control [4]: 103%

CC(=O)[C@H]1CC[C@H]2[C@@H]3CCC4=CC(=O)CC[C@]4(C)[C@H]3CC[C@]12C [Progesterone]
IC50 [1, 10]: 0.31 nM
IC50 [1, 11]: 6.58 nM
Spontaneous uterine contraction frequency compared to vehicle control (in words) [1]: not significantly decreased
Contractile Frequency/10 min (% of baseline), Drug [1]: 48% of baseline
Contractile Force (% of baseline), Drug [1]: 43.9% of baseline
Contractile Force (% of baseline), Drug ([1]; listed as progesterone): 43.9 % of baseline
Median similarity score (NF-κB migration into the nucleus) (in words) (NF-κB pathway): did not affect the median similarity score
EC50 [2, 12]: 9.76 nM
EC50 [2, 13]: 11.3 nM
Oxytocin-induced contraction frequency compared to control (in words) [2]: decreased significantly
Contractile Force (% of baseline), Drug [2]: 266.8% of baseline
Contractile Frequency/10 min (% of baseline), Drug [2]: 141% of baseline
Contractile Force (% of baseline), Drug ([2]; listed as progesterone): 266.8 % of baseline
Contractile Frequency/10 min (% of baseline), Drug ([2]; listed as progesterone): 141 % of baseline
IL-6 [4]: 100.3 pg/mL
IL-6, % of positive control [4]: 83%
Expression of cell surface markers involved in immune response (CD14, TLR4, and HLA-DR) (in words) [5]: decreased expression
